Data as given in patent publication US20090137577A1, “HETEROCYCLIC COMPOUNDS” (Pfizer Inc., priority 2007, published 2009).
pEC50: −log10 of the molar value.

Target: T1, mGluR2 receptor (metabotropic glutamate receptor 2) (Homo sapiens, UniProt Q14416)
T1 construct: expressed in transfected cells
Assay: mGluR2 potentiator screen (FLIPR, EC10-EC20 glutamate challenge);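 further: HEK cells stably expressing human mGluR2 with GL15 G protein, Fluo-4 calcium fluorescence read on FLIPR, compounds added before an EC10-EC20 glutamate challenge to detect potentiation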
Type: cell-based
Conditions: geometric mean; read-out: mGluR 2 EC50 (geometric mean)

T1 sequence (Q14416 19-872, species assumed): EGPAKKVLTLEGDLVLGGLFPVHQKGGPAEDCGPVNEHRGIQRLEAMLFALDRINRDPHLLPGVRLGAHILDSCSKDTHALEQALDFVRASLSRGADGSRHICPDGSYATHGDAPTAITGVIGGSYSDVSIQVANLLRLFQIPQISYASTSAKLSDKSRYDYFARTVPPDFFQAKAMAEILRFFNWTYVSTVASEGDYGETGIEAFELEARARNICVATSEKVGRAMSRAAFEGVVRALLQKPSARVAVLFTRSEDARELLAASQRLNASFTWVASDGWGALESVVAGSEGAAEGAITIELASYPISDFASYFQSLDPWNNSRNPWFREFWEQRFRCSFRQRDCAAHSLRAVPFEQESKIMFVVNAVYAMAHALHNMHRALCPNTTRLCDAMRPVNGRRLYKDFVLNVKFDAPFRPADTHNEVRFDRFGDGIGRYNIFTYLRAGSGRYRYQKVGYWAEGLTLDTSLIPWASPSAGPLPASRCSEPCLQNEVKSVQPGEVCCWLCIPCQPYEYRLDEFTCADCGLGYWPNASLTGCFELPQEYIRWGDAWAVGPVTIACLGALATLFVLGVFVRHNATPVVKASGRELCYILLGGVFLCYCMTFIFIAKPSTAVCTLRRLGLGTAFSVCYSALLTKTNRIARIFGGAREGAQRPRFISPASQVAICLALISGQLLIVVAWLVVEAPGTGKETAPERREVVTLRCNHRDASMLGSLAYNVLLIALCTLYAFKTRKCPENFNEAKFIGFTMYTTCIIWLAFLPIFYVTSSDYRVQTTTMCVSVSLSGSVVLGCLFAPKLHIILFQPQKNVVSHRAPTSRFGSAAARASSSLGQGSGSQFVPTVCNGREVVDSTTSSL

| pEC50 | Compound |
| --- | --- |
| 6.20 | C[C@@H]1CN(Cc2ccc3c(c2)Cc2ccccc2-3)C(=O)O1 [Example 185] |
| 7.05 | Cc1ccccc1COc1ccc(CN2C[C@@H](C)OC2=O)cc1 [Example 186] |
| 6.95 | C[C@@H]1CN(Cc2ccc(-c3cc(Cl)cc(Cl)c3)cc2)C(=O)O1 [Example 187, (5R)-3-[(3′,5′-dichlorobiphenyl-4-yl)methyl]-5-methyl-1,3-oxazolidin-2-one] |
| 6.14 | CCN1CCN(Cc2ccc(OC(C)C3CCCCC3)cc2)C(=O)C1 (stereo not drawn) [Example 188, 1-[4-(1-cyclohexylethoxy)benzyl]-4-ethylpiperazin-2-one] |
| 7.08 | C[C@@H]1CN(Cc2ccc(-c3ccc4c(c3)OCCCO4)cc2)C(=O)O1 [Example 189] |
| 6.17 | COc1ccc(-c2ccc(CN3C[C@@H](C)OC3=O)cc2)cc1OC [Example 190] |
| 6.78 | C[C@@H]1CN(Cc2ccc(-c3ccc(C#N)cc3)cc2)C(=O)O1 [Example 191] |
| 6.29 | CC(=O)c1cccc(-c2ccc(CN3C[C@@H](C)OC3=O)cc2)c1 [Example 193] |
| 7.31 | COc1ccc(Cl)cc1-c1ccc(CN2C[C@@H](C)OC2=O)cc1 [Example 196] |
| 5.74 | CCOC(=O)c1ccccc1-c1ccc(CN2C[C@@H](C)OC2=O)cc1 [Example 197] |
| 7.37 | C[C@@H]1CN(Cc2ccc(-c3ccc4c(c3)OCCO4)cc2)C(=O)O1 [Example 198] |
| 6.09 | Cc1cc(C)n(-c2cccc(-c3ccc(CN4C[C@@H](C)OC4=O)cc3)c2)n1 [Example 199] |
| 6.72 | CC(C)CN1CCN(Cc2ccc(OC(C)C3CCCCC3)cc2)C(=O)C1 (stereo not drawn) [Example 200] |
| 6.12 | CC(Oc1ccc(CN2CCN(C(C)C)CC2=O)cc1)C1CCCCC1 (stereo not drawn) [Example 201] |
| 6.54 | CC(Oc1ccc(CN2CCN(CC3CCCC3)CC2=O)cc1)C1CCCCC1 (stereo not drawn) [Example 202] |
| 7.61 | C[C@@H]1CN(Cc2ccc(OCCCc3ccccc3)cc2)C(=O)O1 [Example 204, (5R)-5-methyl-3-[4-(3-phenylpropoxy)benzyl]-1,3-oxazolidin-2-one] |
| 7.17 | Cc1ccc(F)cc1COc1ccc(CN2C[C@@H](C)OC2=O)cc1 [Example 205] |

| pEC50 | Compound |
| --- | --- |
| 7.52 | C[C@@H]1CN(Cc2ccc(OCCCOc3ccc(F)cc3)cc2)C(=O)O1 [Example 206] |
| 7.20 | CC(Oc1ccc(CN2CC(c3ccccn3)OC2=O)cc1)C1CCCCC1 (stereo not drawn) [Example 207] |
| 7.38 | CC(Oc1ccc(CN2CC(c3cccnc3)OC2=O)cc1)C1CCCCC1 (stereo not drawn) [Example 208] |
| 6.19 | CC(Oc1ccc(CN2CC(c3ccncc3)OC2=O)cc1)C1CCCCC1 (stereo not drawn) [Example 209] |
| 6.37 | C[C@@H]1CN(Cc2ccc(-c3ccc(Cl)cc3F)nc2)C(=O)O1 [Example 210, (5R)-3-{[6-(4-Chloro-2-fluorophenyl)pyridin-3-yl]methyl}-5-methyl-1,3-oxazolidin-2-one] |
| 7.11 | CCC(C)CCOc1ccc(CN2C[C@@H](C)OC2=O)cc1 (stereo partly drawn) [Example 212] |
| 7.70 | C[C@@H]1CN(Cc2ccc(OCCC(C)(C)C)cc2)C(=O)O1 [Example 213] |
| 6.15 | CCCC(C)CN1CCN(Cc2ccc(OC(C)C3CCCCC3)cc2)C(=O)C1 (stereo not drawn) [Example 214] |
| 6.36 | CCCN1CCN(Cc2ccc(OC(C)C3CCCCC3)cc2)C(=O)C1 (stereo not drawn) [Example 215] |
| 6.33 | Cc1ccc(CN2CCN(Cc3ccc(OC(C)C4CCCCC4)cc3)C(=O)C2)cc1 (stereo not drawn) [Example 216] |
| 6.02 | CCC(CC)CN1CCN(Cc2ccc(OC(C)C3CCCCC3)cc2)C(=O)C1 (stereo not drawn) [Example 217] |
| 6.17 | CC(Oc1ccc(CN2CCN(CCCC(F)(F)F)CC2=O)cc1)C1CCCCC1 (stereo not drawn) [Example 218] |
| 6.16 | CC(Oc1ccc(CN2CCN(C(C)CC3CC3)CC2=O)cc1)C1CCCCC1 (stereo not drawn) [Example 219] |
| 6.10 | CC(C)CCN1CCN(Cc2ccc(OC(C)C3CCCCC3)cc2)C(=O)C1 (stereo not drawn) [Example 220] |
| 6.10 | CC(Oc1ccc(CN2CCN(C(C)C3CCC3)CC2=O)cc1)C1CCCCC1 (stereo not drawn) [Example 221] |
| 6.49 | CC(Oc1ccc(CN2CCN(CCC(F)(F)F)CC2=O)cc1)C1CCCCC1 (stereo not drawn) [Example 222] |

Second part, the compound before the results:

| Compound | pEC50 |
| --- | --- |
| CC1CN(Cc2ccc(OCc3ccc(C#N)cc3)cc2)C(=O)O1 (stereo not drawn) [Example 124] | 6.08 |
| Cc1ccc(C(C)Oc2ccc(CN3CC(C)OC3=O)cc2)cc1 (stereo not drawn) [Example 125] | 7.62 |
| CC1CN(Cc2ccc(OC3Cc4ccccc4C3)cc2)C(=O)O1 (stereo not drawn) [Example 126] | 7.08 |
| COc1cc(COc2ccc(CN3CC(C)OC3=O)cc2)ccc1F (stereo not drawn) [Example 127] | 5.77 |
| Cc1c(COc2ccc(CN3CC(C)OC3=O)cc2)cnn1-c1ccccc1 (stereo not drawn) [Example 128] | 6.23 |
| CC1CN(Cc2ccc(OCc3cccc(C#N)c3)cc2)C(=O)O1 (stereo not drawn) [Example 129] | 6.81 |
| CC1CN(Cc2ccc(OCc3ccc(-n4cccn4)cc3)cc2)C(=O)O1 (stereo not drawn) [Example 131] | 6.90 |
| Cc1onc(-c2ccccc2)c1COc1ccc(CN2CC(C)OC2=O)cc1 (stereo not drawn) [Example 132] | 5.78 |
| Cc1nc(-c2ccccc2)ncc1COc1ccc(CN2CC(C)OC2=O)cc1 (stereo not drawn) [Example 133] | 6.92 |
| CCC[C@H](C)Oc1ccc(CN2CC(C)OC2=O)cc1 (stereo partly drawn) [Example 134] | 6.67 |
| CC1CN(Cc2ccc(OC(C)C3CC3)cc2)C(=O)O1 (stereo not drawn) [Example 135] | 5.72 |
| CCC(CC)Oc1ccc(CN2CC(C)OC2=O)cc1 (stereo not drawn) [Example 136] | 6.11 |
| CC1CN(Cc2ccc(OCc3ccc(F)c(F)c3)cc2)C(=O)O1 (stereo not drawn) [Example 137] | 6.51 |
| CCOc1cccc(COc2ccc(CN3CC(C)OC3=O)cc2)c1 (stereo not drawn) [Example 138] | 7.06 |
| CC1CN(Cc2ccc(O[C@H](C)c3ccccc3)cc2)C(=O)O1 (stereo partly drawn) [Example 139] | 7.10 |
| CC1CN(Cc2ccc(OC3CCc4ccccc43)cc2)C(=O)O1 (stereo not drawn) [Example 140] | 7.07 |
| CCC(COc1ccc(CN2CC(C)OC2=O)cc1)(c1ccccc1)N(C)C (stereo not drawn) [Example 141] | 6.00 |
| Cc1ccc(F)cc1COc1ccc(CN2CC(C)OC2=O)cc1 (stereo not drawn) [Example 142] | 7.36 |
| CC(C)CCOc1ccc(CN2CC(C)OC2=O)cc1 (stereo not drawn) [Example 143] | 7.12 |
| CC1CN(Cc2ccc(O[C@@H](C)c3ccccc3)cc2)C(=O)O1 (stereo partly drawn) [Example 144] | 7.07 |
| CC[C@](COc1ccc(CN2CC(C)OC2=O)cc1)(c1ccccc1)N(C)C (stereo partly drawn) [Example 145] | 5.87 |
| COc1cc(COc2ccc(CN3CC(C)OC3=O)cc2)ccc1C (stereo not drawn) [Example 146] | 5.95 |
| COc1cc(F)ccc1COc1ccc(CN2CC(C)OC2=O)cc1 (stereo not drawn) [Example 147] | 6.93 |
| CC[C@H](Oc1ccc(CN2CC(C)OC2=O)cc1)c1ccccc1 (stereo partly drawn) [Example 148] | > 7.87 |
| CC1CN(Cc2ccc(OCCCn3ccc4ccccc43)cc2)C(=O)O1 (stereo not drawn) [Example 149] | 7.45 |
| Cc1ccc(F)c(COc2ccc(CN3CC(C)OC3=O)cc2)c1 (stereo not drawn) [Example 150] | 7.00 |
| COc1ccc(F)c(COc2ccc(CN3CC(C)OC3=O)cc2)c1 (stereo not drawn) [Example 151] | 7.04 |

| Compound | pEC50 |
| --- | --- |
| CC1CN(Cc2ccc(OCCCOc3ccc(F)cc3)cc2)C(=O)O1 (stereo not drawn) [Example 152] | 7.34 |
| C[C@@H]1CN(Cc2ccc(-c3ccc(N4CCOCC4)nc3)cc2)C(=O)O1 [Example 154] | 5.91 |
| C[C@@H]1CN(Cc2ccc(-c3ccc(N(C)C)nc3)cc2)C(=O)O1 [Example 155] | 6.31 |
| COc1ccc(C(C)C)cc1-c1ccc(CN2C[C@@H](C)OC2=O)cc1 [Example 156] | > 7.79 |
| C[C@@H]1CN(Cc2ccc(-c3cc4ccccc4o3)cc2)C(=O)O1 [Example 157] | > 7.49 |
| C[C@@H]1CN(Cc2ccc(-c3ccc(N4CCCC4)nc3)cc2)C(=O)O1 [Example 158] | 6.82 |
| Cc1cc(F)ccc1-c1ccc(CN2C[C@@H](C)OC2=O)cc1 [Example 159] | 7.86 |
| Cc1cc(-c2ccc(CN3C[C@@H](C)OC3=O)cc2)ccc1F [Example 160] | 7.97 |
| COc1cccc(OC)c1-c1ccc(CN2C[C@@H](C)OC2=O)cc1 [Example 161] | 6.64 |
| C[C@@H]1CN(Cc2ccc(-c3cccc4cnccc34)cc2)C(=O)O1 [Example 162] | 7.38 |
| C[C@@H]1CN(Cc2ccc(-c3ccccc3OC(F)(F)F)cc2)C(=O)O1 [Example 164] | > 8.14 |
| COc1ccc(F)cc1-c1ccc(CN2C[C@@H](C)OC2=O)cc1 [Example 166] | 7.61 |
| CCc1ccccc1-c1ccc(CN2C[C@@H](C)OC2=O)cc1 [Example 167] | > 7.87 |
| CCOC(=O)c1cccc(-c2ccc(CN3C[C@@H](C)OC3=O)cc2)c1 [Example 169] | 7.31 |
| COc1ccc(-c2ccc(CN3C[C@@H](C)OC3=O)cc2)cc1F [Example 170] | 7.47 |
| CC(=O)c1ccc(-c2ccc(CN3C[C@@H](C)OC3=O)cc2)cc1 [Example 171] | 7.22 |
| COc1cccc(F)c1-c1ccc(CN2C[C@@H](C)OC2=O)cc1 [Example 172] | 7.50 |
| C[C@@H]1CN(Cc2ccc(-c3cccc4cccnc34)cc2)C(=O)O1 [Example 173] | 6.03 |
| CC(C)N1Cc2ccc(-c3ccc(CN4C[C@@H](C)OC4=O)cc3)cc2C1 [Example 174] | 5.79 |
| CC(=O)c1ccccc1-c1ccc(CN2C[C@@H](C)OC2=O)cc1 [Example 175] | 6.09 |
| Cc1ccc(C)n1-c1ccc(CN2C[C@@H](C)OC2=O)cc1 [Example 178, (5R)-3-[4-(2,5-dimethyl-1H-pyrrol-1-yl)benzyl]-5-methyl-1,3-oxazolidin-2-one] | 6.28 |
| C[C@@H]1CN(Cc2ccc(Oc3ccc(F)cc3)cc2)C(=O)O1 [Example 179] | 6.86 |
| Cc1ccccc1-c1ccc(CN2C[C@@H](C)OC2=O)cc1 [Example 180] | 7.28 |
| C[C@@H]1CN(Cc2ccc(-c3cnc4ccccc4c3)cc2)C(=O)O1 [Example 181] | 6.54 |
| C[C@@H]1CN(Cc2ccc(-c3ccc(Cl)c(Cl)c3)cc2)C(=O)O1 [Example 182] | 7.13 |
| C[C@@H]1CN(Cc2ccc(-c3nc(C(C)(C)C)cs3)cc2)C(=O)O1 [Example 183] | 6.82 |
| Cc1cc(CN2C[C@@H](C)OC2=O)cc(C)c1OCc1ccccc1 [Example 184] | 6.02 |
